# US4971965A, “Antibiotics TAN-1057” (Takeda Chemical Industries, Ltd., priority 1988, dated 1990)
# Where a name gives a salt, the structure may show the parent alone.
# How the values were obtained:
# Solubility = format: physicochemical
# Acidity or basicity = format: physicochemical
# [1] = system: Staphylococcus aureus N28; assay: Antibacterial activity against clinically isolated S. aureus (agar dilution MIC, Table 2); format: cell-based; settings: Staphylococcus aureus, N28
# Method: (§1) DMPPC: Methicillin, KM: Kanamycin, GM: Gentamycin, EM: Erythromycin (Note
# (§2) Determined by the agar dilution method. Medium: Mueller Hinton medium
# (§3) (Difco, USA) Inoculum Size: 10^6 CFU/ml, 37° C.
# [2] = system: Staphylococcus aureus N247; assay: as above; format: cell-based; settings: Staphylococcus aureus, N247
# Method: as §1, §2, §3
# [3] = system: Staphylococcus aureus N176-6; assay: as above; format: cell-based; settings: Staphylococcus aureus, N1766
# Method: as §1, §2, §3
# [4] = system: Staphylococcus aureus TS-65; assay: as above; format: cell-based; settings: Staphylococcus aureus, TS65
# Method: as §1, §2, §3
# Staphylococcus aureus C3 = assay: as above; format: cell-based; settings: Staphylococcus aureus, C3
# Method: as §1, §2, §3
# [5] = system: Staphylococcus aureus N262; assay: as above; format: cell-based; settings: Staphylococcus aureus, N262
# Method: as §1, §2, §3
# [6] = system: Staphylococcus aureus N129; assay: as above; format: cell-based; settings: Staphylococcus aureus, N129
# Method: as §1, §2, §3
# [7] = system: Staphylococcus aureus N176-3; assay: as above; format: cell-based; settings: Staphylococcus aureus, N1763
# Method: as §1, §2, §3
# [8] = system: Staphylococcus aureus FDA 209P; assay: as above; format: cell-based; settings: Staphylococcus aureus, FDA209P
# Method: as §1, §2, §3
# Staphylococcus aureus C7 = assay: as above; format: cell-based; settings: Staphylococcus aureus, C7
# Method: as §1, §2, §3
# [9] = system: Staphylococcus aureus N121; assay: as above; format: cell-based; settings: Staphylococcus aureus, N121
# Method: as §1, §2, §3
# [10] = system: Staphylococcus aureus N237; assay: as above; format: cell-based; settings: Staphylococcus aureus, N237
# Method: as §1, §2, §3
# Staphylococcus aureus C4 = assay: as above; format: cell-based; settings: Staphylococcus aureus, C4
# Method: as §1, §2, §3
# [11] = system: Staphylococcus aureus N64; assay: as above; format: cell-based; settings: Staphylococcus aureus, N64
# Method: as §1, §2, §3
# [12] = system: Staphylococcus aureus N83; assay: as above; format: cell-based; settings: Staphylococcus aureus, N83
# Method: as §1, §2, §3
# Staphylococcus aureus N8 = assay: as above; format: cell-based; settings: Staphylococcus aureus, N8
# Method: as §1, §2, §3
# [13] = system: Staphylococcus aureus N51; assay: as above; format: cell-based; settings: Staphylococcus aureus, N51
# Method: as §1, §2, §3
# [14] = system: Staphylococcus aureus N62; assay: as above; format: cell-based; settings: Staphylococcus aureus, N62
# Method: as §1, §2, §3
# [15] = system: Staphylococcus aureus N247-21; assay: as above; format: cell-based; settings: Staphylococcus aureus, N24721
# Method: as §1, §2, §3
# [16] = system: Staphylococcus aureus N176; assay: as above; format: cell-based; settings: Staphylococcus aureus, N176
# Method: as §1, §2, §3
# [17] = system: Staphylococcus aureus TST-75; assay: as above; format: cell-based; settings: Staphylococcus aureus, TST75
# Method: as §1, §2, §3
# [18] = system: Staphylococcus aureus N247-16; assay: as above; format: cell-based; settings: Staphylococcus aureus, N24716
# Method: as §1, §2, §3
# [19] = system: Staphylococcus aureus N91; assay: as above; format: cell-based; settings: Staphylococcus aureus, N91
# Method: as §1, §2, §3
# [20] = system: Staphylococcus aureus N267; assay: as above; format: cell-based; settings: Staphylococcus aureus, N267
# Method: as §1, §2, §3
# [21] = system: Staphylococcus aureus C10; assay: as above; format: cell-based; settings: Staphylococcus aureus, C10
# Method: as §1, §2, §3
# [22] = system: Staphylococcus aureus N235; assay: as above; format: cell-based; settings: Staphylococcus aureus, N235
# Method: as §1, §2, §3
# [23] = system: Staphylococcus aureus N326; assay: as above; format: cell-based; settings: Staphylococcus aureus, N326
# Method: as §1, §2, §3
smiles,measurement,setting,value
CN(C(=O)C[C@@H](N)CCCNC(=N)N)[C@@H]1CNC(NC(N)=O)=NC1=O [TAN-1057B dihydrochloride],Solubility,Solubility; acetone,Sparingly soluble
same,Solubility,Solubility; diethyl ether,Sparingly soluble
same,Solubility,Solubility; dimethylsulfoxide,Soluble
same,Solubility,Solubility; ethyl acetate,Sparingly soluble
same,Solubility,Solubility; methanol,Soluble
same,Solubility,Solubility; water,Readily soluble
same,Acidity or basicity,Acidity or basicity,neutral
CN1C(=O)C[C@H](CCCNC(=N)N)NC(=O)[C@@H]1CNC(=N)NC(N)=O [TAN-1057D dihydrochloride],Solubility,Solubility; acetone,Sparingly soluble
same,Solubility,Solubility; diethyl ether,Sparingly soluble
same,Solubility,Solubility; dimethylsulfoxide,Soluble
same,Solubility,Solubility; ethyl acetate,Sparingly soluble
same,Solubility,Solubility; methanol,Soluble
same,Solubility,Solubility; water,Readily soluble
same,Acidity or basicity,Acidity or basicity,neutral
"NC[C@H]1O[C@H](O[C@H]2[C@H](O)[C@@H](O[C@H]3O[C@H](CO)[C@@H](O)[C@H](N)[C@H]3O)[C@H](N)C[C@@H]2N)[C@H](O)[C@@H](O)[C@@H]1O [KM, Kanamycin]",MIC,[1],> 100 µg/mL
same,MIC,[2],> 100 µg/mL
same,MIC,[3],1.56 µg/mL
same,MIC,[4],> 100 µg/mL
same,MIC,Staphylococcus aureus C3,> 100 µg/mL
same,MIC,[5],> 100 µg/mL
same,MIC,[6],> 100 µg/mL
same,MIC,[7],1.56 µg/mL
same,MIC,[8],0.39 µg/mL
same,MIC,Staphylococcus aureus C7,> 100 µg/mL
same,MIC,[9],> 100 µg/mL
same,MIC,[10],> 100 µg/mL
same,MIC,Staphylococcus aureus C4,> 100 µg/mL
same,MIC,[11],> 100 µg/mL
same,MIC,[12],> 100 µg/mL
same,MIC,Staphylococcus aureus N8,1.56 µg/mL
same,MIC,[13],3.13 µg/mL
same,MIC,[14],25 µg/mL
same,MIC,[15],> 100 µg/mL
same,MIC,[16],3.13 µg/mL
same,MIC,[17],> 100 µg/mL
same,MIC,[18],> 100 µg/mL
same,MIC,[19],> 100 µg/mL
same,MIC,[20],> 100 µg/mL
same,MIC,[21],> 100 µg/mL
same,MIC,[22],100 µg/mL
same,MIC,[23],> 100 µg/mL
